O=[N+]([O-])c1cc[nH]n1
solubility (mole fraction)
Details | 283.15 K | 288.15 K | 293.15 K | 298.15 K | 303.15 K | 308.15 K | 313.15 K | 318.15 K | 323.15 K
in methanol | 0.00822 | 0.0131 | 0.017 | 0.0208 | 0.0256 | 0.0338 | 0.0455 | 0.0605 | 0.0854
in methyl acetate | 0.0083 | 0.0102 | 0.0125 | 0.0149 | 0.0178 | 0.0209 | 0.0244 | 0.0282 | 0.032
in n-butyl acetate | 0.00323 | 0.00423 | 0.00542 | 0.00687 | 0.00865 | 0.0107 | 0.0132 | 0.0159 | 0.0191
in n-propanol | 0.0224 | 0.0255 | 0.0295 | 0.0336 | 0.0384 | 0.0442 | 0.0481 | 0.0551 | 0.0627
in n-propyl acetate | 0.00676 | 0.00793 | 0.0092 | 0.0106 | 0.0123 | 0.0142 | 0.0165 | 0.0193 | 0.0225
in toluene | 0.00148 | 0.00187 | 0.00232 | 0.00286 | 0.00354 | 0.00437 | 0.00514 | 0.00623 | 0.00729
in water | 0.00032 | 0.0004 | 0.00051 | 0.00065 | 0.00083 | 0.00105 | 0.00133 | 0.0017 | 0.00216

— BigSolDB 2.1
